Measurements from patent US20230031385A1, “STORAGE MEDIA FOR PRESERVATION OF CORNEAL TISSUE” (National Health Research Institutes, priority 2021, published 2023).

How the values were obtained:
[1] = system: bovine corneal endothelium cells; assay: TUNEL assay of AAPH induced apoptosis; format: cell-based; conditions: ferulic acid 50 μM and 100 μM, AAPH 25 mM (FIG. 4)
Protocol: Terminal deoxynucleotidyl transferase (TdT) end-labeling (TUNEL) method (DeadEnd™ Fluorometric TUNEL System, Promega, Madison, USA) was used for apoptosis analysis according to the manufacturer's instructions (FIG. 4). Briefly, bovine cornea endothelium cells were seeded on LabTek® chamber slides at a density of 1×10^4 cells/well for 24 hours, treated with 50 μM ferulic acid for 3 hours, and then reacted with 25 mM AAPH (2,2′-azobis(2-amidinopropane dihydrochloride) for 6 hours. Slides were immersed in 4% formaldehyde for fixation, cells were permeabilized with Triton® X-100. Then equilibration buffer, nucleotide mix and rTdT enzyme were added in for apoptosis cells labeling. Finally, counterstaining the nucleus with propidium iodide, and observed by fluorescence microscopy. The green fluorescence spots in FIG. 4 represents the apoptotic cells (fluorescein-12-dUTP) with a red background (propidium iodide).

[2] = system: human corneal endothelium cells (HCECs); assay: Annexin V-FITC / propidium iodide flow cytometry apoptosis assay; format: cell-based; conditions: 50 μM and 100 μM, 24 hours (FIG. 3)
Protocol: Annexin V staining is a common method for detecting apoptotic cells. The human corneal endothelium cells (HCECs) were assessed for apoptosis using flow cytometry staining with annexin-V conjugated with fluorescein isothiocyanate and propidium iodide (FIG. 3). HCECs were cultured in DMEM/F12 containing 50 μM and 100 μM ferulic acid. Briefly, HCECs were grown to confluence and incubated for 24 hours in 24-well plates using the same conditions as in the previous sets of experiments. After centrifugation and washing in cold PBS, HCECs for annexin V-FITC staining were resuspended in binding buffer (10 mM HEPES, 140 mM sodium chloride, 5 mM potassium chloride, 1 mM magnesium dichloride, 2.5 mM calcium dichloride, pH 7.4) at a concentration of 10^6 cells/ml. Five hundred microliters containing 5×10^5 cells was transferred to a culture tube, and […] of FITC-conjugated annexin V was added. Positive controls were provided for both apoptotic and necrotic (10% ethanol) cell death. For simultaneous scoring of the differential cellular response, aliquots of 10^4 cells each were immediately processed for fluorescence-activated cell sorting (FACS) on a FACS Calibur flow cytometer (Becton-Dickinson). Excitation parameters were set at λEx=488 nm, and fluorescence emission was detected at […]=518 nm for annexin V-FITC.

COc1cc(/C=C/C(=O)O)ccc1O [ferulic acid]
protection against AAPH induced damage (apoptosis, TUNEL) [1]: prevented and/or antagonized AAPH (25 mM) induced damage
cytotoxicity (apoptosis, annexin-V/PI) [2]: no cytotoxic effect
